The target in experiment [1] is T1, ICE (Homo sapiens, UniProt P29466).
T1 sequence (P29466 120-297 limits assumed): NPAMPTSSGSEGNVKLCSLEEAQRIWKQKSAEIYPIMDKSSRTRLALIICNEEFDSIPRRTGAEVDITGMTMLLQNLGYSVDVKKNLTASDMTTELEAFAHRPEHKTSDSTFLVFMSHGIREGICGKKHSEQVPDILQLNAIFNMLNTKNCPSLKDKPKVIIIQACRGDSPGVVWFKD
T1 sequence (P29466 317-404 limits assumed): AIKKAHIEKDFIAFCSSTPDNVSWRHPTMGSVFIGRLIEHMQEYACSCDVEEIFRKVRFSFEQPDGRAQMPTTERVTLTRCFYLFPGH
Kind of experiment: ICE inhibition, Ki determination (fluorogenic substrate Ac-Tyr-Val-Ala-Asp-AMC). The note with it: 15 µM Ac-Tyr-Val-Ala-Asp-AMC, 0.5 nM enzyme, 30°C, reversible competitive model. It is filed as biochemical. As to the method:
Serial dilutions of each compound of the invention are prepared using an initial 8-fold dilution of a DMSO stock into HGE (100 mM HEPES, 20% glycerol v/v, 0.5 mM EDTA), followed by seven serial 2-fold dilutions into HGE + 12.5% DMSO. Ten microliters of diluted stocks or of vehicle (HGE + 12.5% DMSO) are placed in triplicate onto a 96-well microtiter plate. Enzyme is diluted into assay buffer (HGE, 5 mM DTT, 15 µM Ac-Tyr-Val-Ala-Asp-AMC; 0.5 nM final enzyme concentration, pre-warmed to 30°C), and this reaction mixture is added to the plate at 90 µL/well. Substrate hydrolysis is monitored for 300 seconds at 30°C using 385 and 460 nm excitation and emission filters, respectively. Triplicate curves are averaged, and slopes are evaluated by linear regression. To evaluate Ki, plots of percent inhibition vs inhibitor concentration are fit by non-linear regression to a reversible, competitive model: [formula] where the competition factor is (1 + [S]/KM) = 2.

Experiment [2] concerns the target T1, ICE. Kind of experiment: ICE Colorimetric Dose-Response (IC50) Assay. Conditions: 60 minutes preincubation, 50 µM Ac-Tyr-Val-Ala-Asp-pNA, 25°C. Type of experiment: biochemical. As for the experimental part:
Diluted inhibitor stocks are prepared by two-fold serial dilution from a primary stock whose concentration is selected (based on screening results or on prior attempts at IC50 evaluation) to achieve approximately 95% inhibition in the most concentrated well. Aliquots of each dilution are transferred to a microtitre plate in triplicate.
ICE enzyme is diluted to approximately 24 nM in HGE buffer (100 mM Hepes pH 7.5, 0.5 mM EDTA, 20% glycerol, 0.1% Bovine Serum Albumin (BSA), and activated by adding dithiothreitol (DTT) to a final concentration of 5 mM. The activated enzyme is then aliquoted into wells containing inhibitor or vehicle, and the plate is preincubated for 60 minutes at ambient temperature. Substrate (Ac-Tyr-Val-Ala-Asp-pNA) is added to each well to a final concentration of 50 µM, and plates are placed in the microtitre plate-reader thermostated to 25°C. Beginning 5 minutes after addition of substrate, absorbance (405 nm) of wells is monitored for 1 hour, and activity is calculated as the mean rate of change in absorbance during this interval.

Experiment [3] relates to IL-1β production in human peripheral blood mononuclear cells (PBMCs). The experiment in a line: PBMC Cellular Assay - IC50 Determinations (LPS-stimulated IL-1β production, ELISA). Type of experiment: cell-based. Conditions: human PBMCs stimulated overnight with 10 ng/mL LPS, mature IL-1β by ELISA. The source says: Further evidence that compounds of Formula I are inhibitors of ICE is provided by their ability to inhibit IL-1β production in human peripheral blood mononuclear cells (PBMCs) as described herein. PBMCs are isolated from heparinized blood by centrifugation over a ficoll cushion, then washed three times with phosphate-buffered saline. PBMCs are suspended in a medium containing RPMI 1640 with glutamine, penicillin, streptomycin, and 2% human AB serum, then plated at 10^6 cells per well in 96-well flat bottom plates. PBMCs are stimulated overnight with 10 ng/mL of lipopolysaccharide (LPS, E. coli strain 0111:B4; Calbiochem) in the presence or absence of a compound of Formula I. Medium is harvested, and the level of mature IL-1β was determined using an ELISA kit from R&D Systems. Cells were cultured for an additional 4 hours in the presence of 3-(4,5-dimethylthiazol-2-yl)-2,5-diphenyltetrazolium bromide (MTT) to determine viability.
On the technique in general: An ELISA detects its analyte on a solid surface through an enzyme-linked reagent.

This note sets out measurements from EP1082127B1 (WARNER-LAMBERT COMPANY LLC, priority 1998, dated 1999).

SMILES strings stand for the structures.

By Ki is commonly meant a dissociation constant, usually derived from enzyme kinetics or from competition with a known ligand. A higher Ki goes with weaker binding. As usually defined, the IC50 is the point on the concentration scale where inhibition reaches its midpoint. Consider `CCOC1OC(=O)CC1NC(=O)C(CC(=O)NCCn1ccc2ccccc21)C(C)C` (stereo not drawn) [Example 50, N^1-(2-Ethoxy-5-oxo-tetrahydro-furan-3-yl)-N^4-(2-indol-1-yl-ethyl)-2-isopropyl-succinamide], for which affinity at ICE [1] was put at a Ki of 0.0538 µM. Besides, the results for the IC50 (at ICE [2]; in experiment [3]) were 0.924 µM and 2 µM, respectively.
With `CCOC(=O)CC(C#N)NC(=O)C(CC(=O)NCCOc1ccccc1)C(C)C` (stereo not drawn) [Example 64, 3-Cyano-3-{3-methyl-2-[(2-phenoxy-ethylcarbamoyl)-methyl]-butyrylamino}-propionic acid ethyl ester], the inhibition constant (Ki) at ICE [1] is more than 100 µM. The same compound returned an IC50 in experiment [3] of more than 100 µM.
For the compound `COc1cc(CCCNC(=O)C[C@H](C(=O)NC(C=O)CC(=O)O)C(C)C)cc(OC)c1OC` (stereo partly drawn) [Example 62, 3-(3-methyl-2-{[3-(3,4,5-trimethoxy-pheny)-propylcarbamoyl]-methyl}-butyrylamino)-4-oxo-butyric acid], the inhibition constant (Ki) at ICE [1] was 0.274 µM. In addition, the IC50 against ICE [2] worked out at 2.56 µM; in experiment [3], 23 µM.
`CCOC1OC(=O)CC1NC(=O)C(CC(=O)NCCOc1ccccc1)C(C)C` (stereo not drawn) [Example 39, N^1-(2-Ethoxy-5-oxo-tetrahydro-furan-3-yl)-2-isopropyl-N^4-(2-phenoxyethyl)-succinamide] yielded a Ki on ICE [1] of 0.446 µM. For the same compound, the figures for the IC50 (at ICE [2]; in experiment [3]) were 13.2 µM and 5 µM, respectively.
On to `CC(C)C(CC(=O)N(C)CCOc1ccccc1)C(=O)NC(C=O)CC(=O)O` (stereo not drawn) [Example 22, 3-(3-Methyl-2-{[methyl-(2-phenoxy-ethyl)-carbamoyl]-methyl}-butyrylamino)-4-oxo-butyric acid], for which, on ICE [1], the inhibition constant (Ki) was 0.133 µM. For the same compound, the IC50 on ICE [2] stood at 1.67 µM; in experiment [3], 19 µM.
Turning to `CCOC1OC(=O)CC1NC(=O)C(CC(=O)NCCc1c[nH]c2cc(F)ccc12)C(C)C` (stereo not drawn) [Example 44, N^1-(2-Ethoxy-5-oxo-tetrahydro-furan-3-yl)-N^4-[2-(6-fluoro-1H-indol-3-yl)-ethyl]-2-isopropyl-succinamide], affinity on ICE [1] was put at a Ki of 0.0475 µM. The figures for the IC50 (on ICE [2]; in experiment [3]) were 1.22 µM and 2.5 µM, respectively.
In the case of `CCOC(=O)CC(C=O)NC(=O)C(CC(=O)NCCOc1ccccc1)C(C)C` (stereo not drawn) [Example 63, 3-{3-Methyl-2-[(2-phenoxy-ethylcarbamoyl)-methyl]-butyrylamino}-4-oxo-butyric acid ethyl ester], the Ki at ICE [1] was 6.92 µM. Besides, the IC50 against ICE [2] stood at 197 µM; in experiment [3] it was 14.5 µM.
Consider `CCOC1OC(=O)CC1NC(=O)C(CC(=O)NCCCc1cc(OC)c(OC)c(OC)c1)C(C)C` (stereo not drawn) [Example 47, N^1-(2-Ethoxy-5-oxo-tetrahydro-furan-3-yl)-2-isopropyl-N^4-[3-(3,4,5-trimethoxy-phenyl)-propyl]-succinamide], for which the Ki at ICE [1] came out at 1.93 µM. Moreover, the 50% inhibitory concentration (IC50) turned out to be 112 µM against ICE [2] and 11 µM in experiment [3].
Compound `CC(C)C(CC(=O)NCCCc1ccccc1)C(=O)NC(CC(=O)O)C(=O)COc1cc2ccccc2cc1-c1ncc[nH]1` (stereo not drawn) [Example 14, 5-[3-(1H-Imidazol-2-yl)-naphthalen-2-yloxy]-3-{3-methyl-2-[(3-phenyl-propylcarbamoyl)-methyl]-butyrylamino}-4-oxo-pentanoic acid] showed an inhibition constant Ki on ICE [1] of 0.107 µM. Further, the IC50 against ICE [2] turned out to be 0.0087 µM; in experiment [3] it was 19 µM.
The corresponding values for `CCOC1OC(=O)CC1NC(=O)C(CC(=O)NCCNc1ccccc1)C(C)C` (stereo not drawn) [Example 43, N^1-(2-Ethoxy-5-oxo-tetrahydro-furan-3-yl)-2-isopropyl-N^4-(2-phenylamino-ethyl)-succinamide] are 0.0981 µM, 2.28 µM and 7.5 µM.
With `CCOC1OC(=O)CC1NC(=O)C(CC(=O)NCCn1ncc2ccccc21)C(C)C` (stereo not drawn) [Example 42, N^1-(2-Ethoxy-5-oxo-tetrahydro-furan-3-yl)-N^4-(2-indazol-1-yl-ethyl)-2-isopropyl-succinamide], the affinity at ICE [1], expressed as Ki, was 0.191 µM. For the same compound, the figures for the IC50 (at ICE [2]; in experiment [3]) were 1.73 µM and 7.5 µM, respectively.
On ICE [1], `CCOC1OC(=O)CC1NC(=O)[C@@H](CC(=O)NCCCc1ccccc1)C(C)C` (stereo partly drawn) [Example 51, N^1-(2-Ethoxy-5-oxo-tetrahydro-furan-3-yl)-2-isopropyl-N^4-[4-(phenyl)-propyl]-succinamide] showed a Ki of 0.259 µM. The IC50 stood at 15 µM on ICE [2] and 16.2 µM in experiment [3].
At ICE [1], `CC(C)[C@H](CC(=O)NCCOc1ccccc1)C(=O)NC(C=O)CC(=O)O` (stereo partly drawn) [Example 8] registered a Ki of 0.015 µM. Also, the IC50 is 0.54 µM against ICE [2] and 3.75 µM in experiment [3].
In the case of `CCOC1OC(=O)CC1NC(=O)C(CC(=O)NCCc1ccccc1)C(C)C` (stereo not drawn) [Example 48, N^1-(2-Ethoxy-5-oxo-tetrahydro-furan-3-yl)-2-isopropyl-N^4-[2-(phenyl)-ethyl]-succinamide], the Ki on ICE [1] was determined as 1.01 µM. For the same compound, the values for the IC50 (against ICE [2]; in experiment [3]) were 59.9 µM and 13.5 µM, respectively.
The corresponding values for `CCOC1OC(=O)CC1NC(=O)C(CC(=O)NCCc1c[nH]c2ccc(F)cc12)C(C)C` (stereo not drawn) [Example 52, N^1-(2-Ethoxy-5-oxo-tetrahydro-furan-3-yl)-N^4-[2-(5-fluoro-1H-indol-3-yl)-ethyl]-2-isopropyl-succinamide] are 0.0185 µM, 0.486 µM and 0.75 µM.
Take `CCOC1OC(=O)CC1NC(=O)C(CC(=O)NCCn1nnc2ccccc21)C(C)C` (stereo not drawn) [Example 41, N^4-(2-Benzotriazol-1-yl-ethyl)-N^1-(2-ethoxy-5-oxo-tetrahydro-furan-3-yl)-2-isopropyl-succinamide]: affinity at ICE [1] was put at a Ki of 0.409 µM. In addition, the results for the IC50 (against ICE [2]; in experiment [3]) were 13 µM and 17.5 µM, respectively.
Consider `CCOC1OC(=O)CC1NC(=O)C(CC(=O)NCCCCc1ccccc1)C(C)C` (stereo not drawn) [Example 49, N^1-(2-Ethoxy-5-oxo-tetrahydro-furan-3-yl)-2-isopropyl-N^4-[4-(phenyl)-butyl]-succinamide], for which, on ICE [1], the inhibition constant (Ki) is 2.15 µM. Also, the midpoint of inhibition against ICE [2], the IC50, lay at 123 µM.
On ICE [1], `CC(C)C(CC(=O)NCCOc1ccccc1)C(=O)NC(C#N)CC(=O)O` (stereo not drawn) [Example 65, 3-Cyano-3-{3-methyl-2-[(2-phenoxy-ethylcarbamoyl)-methyl]-butyrylamino}-propionic acid] gave a Ki of 107 µM. The same compound registered an IC50 in experiment [3] of more than 100 µM.
For the compound `CCOC1OC(=O)CC1NC(=O)C(CC(=O)NCCn1cnc2ccccc21)C(C)C` (stereo not drawn) [Example 35, N^4-(2-Benzoimidazol-1-yl-ethyl)-N^1-(2-ethoxy-5-oxo-tetrahydro-furan-3-yl)-2-isopropyl-succinamide], the inhibition constant Ki at ICE [1] amounted to 0.0511 µM. Besides, the IC50 against ICE [2] was found to be 1.06 µM; in experiment [3], 5.5 µM.
The corresponding values for `CCOC1OC(=O)CC1NC(=O)C(CC(=O)NCCc1c[nH]c2cc(OC)ccc12)C(C)C` (stereo not drawn) [Example 40, N^1-(2-Ethoxy-5-oxo-tetrahydro-furan-3-yl)-2-isopropyl-N^4-[2-(6-methoxy-1H-indol-3-yl)-ethyl]-succinamide] are 0.0354 µM, 1.15 µM and 2.9 µM.
